What was measured:
[1] = biological target: HIV reverse transcriptase K103N (Human immunodeficiency virus type 1 group M subtype B, UniProt P03366, K702N); assay: Enzyme assay, reverse transcriptase K103N; type: biochemical, HIV-1
Excerpt: (§1) As used herein, “reverse transcriptase” or “RT” refers to an enzyme having a non-nucleoside inhibitory binding site similar to that of HIV-1 RT, and to which ligands, which bind the composite binding pocket of the compounds of the present invention, also will bind. One measure of RT activity is viral replication. A measure of HIV-1 viral replication is the automated assay that utilizes MTT, as described earlier in this specification. Another measure is the p24 core antigen enzyme immunoassay, such as, for example, the assay commercially available from Coulter Corporation/Immunotech, Inc.® (Westbrook, Mich.). Another means for measuring RT activity is by assaying recombinant HIV-1 reverse transcriptase activity, such as, for example, by using the Quan-T-RT™ assay system commercially available from Amersham® (Arlington Heights, Ill.) and as described by Bosworth et al., Nature, 1989, 341:167-168.
(§2) The 3-phosphoindoles can be assessed for their ability to inhibit reverse transcriptase activity in vitro according to standard screening methods.

[2] = biological target: HIV reverse transcriptase Y181C (Human immunodeficiency virus type 1 group M subtype B, UniProt P03366, Y780C); assay: Enzyme assay, reverse transcriptase Y181C; type: biochemical, HIV-1
Excerpt: as §1, §2

[3] = system: HIV mutant strain Y181C; assay: Cell-based assay using BH-10 cells, Y181C mutant; details: Human immunodeficiency virus 1, read-out: EC50 Y181C, BH-10 cells, Y181C mutant
[4] = biological target: HIV reverse transcriptase WT (Human immunodeficiency virus type 1 group M subtype B, UniProt P03366); assay: Enzyme assay, reverse transcriptase WT; type: biochemical, HIV-1
Excerpt: as §1, §2

[5] = system: HIV mutant strain K103N/Y181C; assay: Cell-based assay using BH-10 cells, K103N/Y181C mutant; details: Human immunodeficiency virus 1, read-out: EC50 K103N/Y181C, BH-10 cells, K103N/Y181C mutant
[6] = biological target: HIV reverse transcriptase K103N/Y181C (Human immunodeficiency virus type 1 group M subtype B, UniProt P03366, K702N/Y780C); assay: Enzyme assay, reverse transcriptase K103N/Y181C; type: biochemical, HIV-1
Excerpt: as §1, §2

[7] = system: HIV BH-10 WT; assay: Cell-based assay using BH-10 cells, wild type; details: Human immunodeficiency virus 1, read-out: EC50 WT///B, BH-10 cells, wild type

| SMILES | IC50 [1] [nM] | IC50 [2] [nM] | EC50 [3] [nM] | IC50 [4] [nM] | EC50 [5] [nM] | IC50 [6] [nM] | EC50 [7] [nM] |
| --- | --- | --- | --- | --- | --- | --- | --- |
| CCOP(=O)(c1ccccc1)c1c(C(N)=O)[nH]c2ccc(Cl)cc12 (stereo not shown) [Compound 6a] | 1630 | 1970 | 13.7 | 722 | 16.4 | > 5000 | 1.2 |
| CCOP(=O)(c1cc(F)cc(F)c1)c1c(C(N)=O)[nH]c2ccc(Cl)cc12 (stereo not shown) [Compound 6ac] | 12700 | 3500 | 986 | 726 | > 1250 | > 5000 | 3.7 |
| CCOP(=O)(c1ccccc1F)c1c(C(N)=O)[nH]c2ccc(Cl)cc12 (stereo not shown) [Compound 6ad] | 3290 | 4350 | 58.3 | 433 | 17 | > 5000 | 0.9 |
| CCOP(=O)(c1cc(C)cc(C)c1)c1c(C(N)=O)[nH]c2ccc(Cl)cc12 (stereo not shown) [Compound 6b] | 2610 | 4310 | 28 | 1640 | 51.7 | > 5000 | 3 |
| CCOP(=O)(c1ccc(F)cc1)c1c(C(N)=O)[nH]c2ccc(Cl)cc12 (stereo not shown) [Compound 6c] | > 5000 | > 5000 | > 1250 | 3620 | > 1250 | > 5000 | 34.5 |
| COP(=O)(c1ccccc1)c1c(C(N)=O)[nH]c2ccc(Cl)cc12 (stereo not shown) [Compound 7ah] | 389 | 349 | 4.9 | 309 | 3.4 | 6750 | 0.4 |
| COP(=O)(c1ccccc1)c1c(C(N)=O)[nH]c2ccccc12 (stereo not shown) [Compound 7ai] | 6590 | 5610 | 1110 | 393 | 706 | > 5000 | 1 |
| CCOP(=O)(c1cc(C)cc(C)c1)c1c(C(=O)NCc2ccncc2)[nH]c2ccc(Cl)cc12 (stereo not shown) [Compound 9a] | 3360 | 4490 | 57.7 | 3410 | 8 | > 5000 | 11 |
| COP(=O)(c1ccccc1)c1c(C(=O)NCc2ccncc2)[nH]c2ccc(Cl)cc12 (stereo not shown) [Compound 18ar] | 930 | 489 | 5.6 | 156 | 3.9 | 1660 | 1 |
| NC(=O)c1[nH]c2ccc(Cl)cc2c1P(=O)(c1ccccc1)c1ccccc1 [Compound 27a] | > 5000 | > 5000 | > 1250 | > 5000 | > 1250 | > 5000 | > 1250 |
| CP(=O)(c1ccccc1)c1c(C(N)=O)[nH]c2ccc(Cl)cc12 (stereo not shown) [Compound 29a] | > 5000 | 2520 | 266 | 233 | 1380 | > 5000 | 0.8 |
| CN(C)P(=O)(c1ccccc1)c1c(C(N)=O)[nH]c2ccc(Cl)cc12 (stereo not shown) [Compound 31a] | > 5000 | > 5000 | 467 | 1400 | > 1250 | > 5000 | 13.9 |
| NC(=O)c1[nH]c2ccc(Cl)cc2c1P(=O)(O)c1ccccc1 [Compound 60a] | > 5000 | > 5000 | > 1250 | > 5000 | > 1250 | > 5000 | > 1250 |
